In the supplement of paper PMC5412046:

How the values were obtained:
SB.mhdgc-1 [1] = experiment: viability at highest tested concentration (MAXR) relative to DMSO; higher = less cytotoxic; conditions: SB.mhdgc-1 (hereditary c.1380delA CDH1 gastric cancer)
In short: (§1)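 Patient-derived gastric cancer cells, hereditary or sporadic, were plated at 500 cells in 5 μL medium per well of a 1536-well plate and given 23 nL of compound in DMSO by pintool across 11 threefold dilutions. The top concentration was recorded for each compound. After 48 h, CellTiter-Glo was added for 30 min at room temperature and luminescence was read on a ViewLux. Values are viability normalised to DMSO, taken either at the highest concentration or as trapezoidal area under the curve.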

SB.msgc-1 [2] = experiment: as above; conditions: SB.msgc-1 (sporadic gastric cancer)
In short: as §1

SB.mhdgc-1 [3] = experiment: area under the dose-response curve of % viability (trapezoidal, 11 doses) (% viability x log10 concentration); higher = less cytotoxic; conditions: SB.mhdgc-1 (hereditary c.1380delA CDH1 gastric cancer)
In short: as §1

SB.msgc-1 [4] = experiment: as above; conditions: SB.msgc-1 (sporadic gastric cancer)
In short: as §1

| Compound | viability (SB.mhdgc-1 [1]) [%] | viability (SB.msgc-1 [2]) [%] | area under the dose-response curve (SB.mhdgc-1 [3]) | area under the dose-response curve (SB.msgc-1 [4]) |
| --- | --- | --- | --- | --- |
| CC(C)N(CCCNC(=O)Nc1ccc(C(C)(C)C)cc1)C[C@H]1O[C@@H](n2cc(Br)c3c(N)ncnc32)[C@H](O)[C@@H]1O [SGC0946] (top concentration 46.0829 µM) | 3.02 | 31.7 | 497 | 473 |
| COC(=O)C/1=C/O[C@@H](O)[C@H]\2[C@@H]1C\C=C2CO [Genipin] (top concentration 46.0829 µM) | 31.3 | 77.1 | 480 | 514 |
| COc1cc2ncnc(Nc3ccc(F)c(Cl)c3)c2cc1OCCCN1CCOCC1 [Gefitinib] (top concentration 92.1659 µM) | 3.99 | 16 | 278 | 314 |
| CO[C@@H]1[C@@H](O)[C@H](O)[C@@H](n2c3c(Cl)cccc3c3c4c(c5c6cccc(Cl)c6[nH]c5c32)C(=O)NC4=O)O[C@H]1CO [Rebeccamycin] (top concentration 46.0829 µM) | 13.6 | 24.2 | 346 | 390 |
| CN(C)c1ccc(O)c2c1C[C@H]1C[C@H]3[C@H](N(C)C)C(O)=C(C(N)=O)C(=O)[C@@]3(O)C(O)=C1C2=O [Minocycline] (top concentration 46.0829 µM) | 27.4 | 26.2 | 450 | 431 |
| CCCC(C)(COC(N)=O)COC(=O)NC(C)C (centres undefined) [Carisoprodol] (top concentration 46.0829 µM) | 98.1 | 120 | 515 | 538 |
| CNC1CCC(N(Cc2cccc(-c3ccncc3)c2)C(=O)c2sc3c(F)ccc(F)c3c2Cl)CC1 (centres undefined) [Hh-Ag1.5] (top concentration 46.0829 µM) | 0.908 | 17.9 | 426 | 426 |
| C\C1=N\N(C(=O)C1)C2=CC=CC=C2 [Edaravone] (top concentration 46.0829 µM) | 121 | 117 | 497 | 530 |
| CCOC(=O)c1ncn2c1CN(C)C(=O)c1cc(F)ccc1-2 [Flumazenil] (top concentration 46.0829 µM) | 40.2 | 88 | 512 | 583 |
| C[S+](=O)([O-])N1CCc2c(-c3cnc(N)nc3)nc(N3CCOCC3)nc21 (top concentration 46.0829 µM) | 18.7 | 40.9 | 341 | 373 |
| O=P1(NCCCl)OCCCN1CCCl (centres undefined) [Ifomide] (top concentration 46.0829 µM) | 48.3 | 39 | 350 | 427 |
| CC/C(=C(/CC)c1ccc(O)cc1)c1ccc(O)cc1 [Diethylstilbestrol] (top concentration 46.0829 µM) | 10.1 | 39 | 404 | 448 |
| CN[C@@H]1CN(C[C@H]1OC)C2=NC3=C(C=C2)C(=O)C(=C\N3C4=NC=CS4)/C(O)=O [Vosaroxin] (top concentration 23.0415 µM) | 23.6 | 46 | 445 | 471 |
| C[C@@H](O)[C@@H]1[C@H]2[C@@H](C)\C(=C(/N2C1=O)C(=O)OCOC(=O)C(C)(C)C)SC3CN(C3)/C4=N/CCS4 [Tebipenem pivoxil] (top concentration 46.0829 µM) | 115 | 91.9 | 530 | 529 |
| CNC(=O)c1c(-c2ccc(F)cc2)oc2cc(N(CCO)[S+](C)(=O)[O-])c(C3CC3)cc12 [Nesbuvir] (top concentration 46.0829 µM) | 4.32 | 64.6 | 373 | 438 |
| CC(C(=O)O)c1ccc2c(c1)CC(=O)c1ccccc1S2 (centres undefined) [Zaltoprofen] (top concentration 46.0829 µM) | 31.5 | 49.6 | 452 | 431 |
| C=CCc1ccc(O)c(-c2ccc(O)c(CC=C)c2)c1 [Honokiol] (top concentration 46.0829 µM) | 30.6 | 79.4 | 441 | 519 |
| O=C([O-])Cc1ccccc1Nc1c(Cl)cccc1Cl [Diclofenac sodium] (top concentration 46.0829 µM) | 39.2 | 104 | 555 | 626 |

| Compound | viability (SB.mhdgc-1 [1]) [%] | viability (SB.msgc-1 [2]) [%] | area under the dose-response curve (SB.mhdgc-1 [3]) | area under the dose-response curve (SB.msgc-1 [4]) |
| --- | --- | --- | --- | --- |
| NC1CC1c1ccccc1 (centres undefined) [Tranylcypromine] (top concentration 46.0829 µM) | 106 | 109 | 551 | 554 |
| CC=CC1=C(C(=O)O)N2C(=O)[C@@H](NC(=O)[C@H](N)c3ccc(O)cc3)[C@H]2SC1.O [Cefprozil] (top concentration 46.0829 µM) | 4.42 | 92.3 | 516 | 573 |
| O=P(O)(O)C(O)(Cn1ccnc1)P(=O)(O)O [Zoledronic acid monohydrate] (top concentration 23.0415 µM) | 124 | 120 | 608 | 578 |
| CCn1cc(-c2ccnc3[nH]c(-c4cccc(CN(C)C)c4)cc23)c(-c2ccc(NC(=O)N(C)C)cc2)n1 (top concentration 46.0829 µM) | 32.2 | 15.2 | 367 | 450 |
| O=C(/C=C/c1cccnc1)NCCCCC1CCN(C(=O)c2ccccc2)CC1 [Daporinad] (top concentration 46.0829 µM) | 41.7 | 42.8 | 264 | 419 |
| COC1=CC=C(C=C1O)C/2=C/C(=O)C3=C(O2)C=C(O[C@@H]4O[C@H](CO[C@@H]5O[C@@H](C)[C@H](O)[C@@H](O)[C@H]5O)[C@@H](O)[C@H](O)[C@H]4O)C=C3O [Diosmin] (top concentration 46.0829 µM) | 39.5 | 48.1 | 494 | 427 |
| O=C1NC(=O)/C(=C/c2ccc3nccnc3c2)S1 (top concentration 23.0415 µM) | 32.1 | 45.2 | 506 | 540 |
| Cc1cc(Nc2ncc3c(n2)N(C)C(=O)N(c2cc(NC(=O)c4cccc(C(F)(F)F)c4)ccc2C)C3)n(C)n1 [Pluripotin] (top concentration 46.0829 µM) | 40.4 | 45.8 | 429 | 438 |
| NCC1CCC(C(=O)O)CC1 (centres undefined) [Tranexamic acid] (top concentration 46.0829 µM) | 114 | 108 | 610 | 517 |
| COC(=O)N1CCN(Cc2cccc(NC(=O)Nc3ccc(C)nc3)c2F)CC1 [Omecamtiv mecarbil] (top concentration 46.0829 µM) | 63.7 | 72.8 | 397 | 503 |
| CC(C)NC[C@@H](C(=O)N1CCN(c2ncnc3c2[C@H](C)C[C@H]3O)CC1)c1ccc(Cl)cc1 [GDC-0068] (top concentration 46.0829 µM) | 9.98 | 38.4 | 324 | 421 |
| CC(=O)[C@H]1CC[C@H]2[C@@H]3CCC4=CC(=O)CC[C@]4(C)[C@H]3CC[C@]12C [Progesterone] (top concentration 46.0829 µM) | 42.2 | 37.5 | 434 | 505 |
| COC1=CC=C(C=N1)C/2=C/C3=C(C)N=C(N)N=C3N(C4CCC(CC4)OCCO)C2=O (centres undefined) (top concentration 46.0829 µM) | 28.8 | 33.6 | 238 | 311 |
| Cc1cc(SCc2sc(-c3ccc(C(F)(F)F)cc3)nc2C)ccc1OCC(=O)O (top concentration 46.0829 µM) | 111 | 50.9 | 590 | 271 |
| O=C(CCCCCCNC(=O)c1cnc(N(c2ccccc2)c2ccccc2)nc1)NO [ACY-1215] (top concentration 46.0829 µM) | 39.2 | 4.17 | 474 | 421 |
| NC(=O)c1nnn(Cc2cc(Cl)c(C(=O)c3ccc(Cl)cc3)c(Cl)c2)c1N [Carboxyamidotriazole] (top concentration 46.0829 µM) | 46.1 | 27.3 | 585 | 492 |
| COc1cccc(Nc2c(C(N)=O)cnc3c(C)cc([S+](=O)([O-])c4cccc(C(=O)N(C)C)c4)cc23)c1 (top concentration 23.0415 µM) | 83.4 | 105 | 500 | 597 |
| CCOC(=O)\C1=C\[C@]2(CC)CCCN3CCC4=C([C@H]23)[N]1C5=C4C=CC=C5 [Vinpocetine] (top concentration 46.0829 µM) | 3.48 | 4.04 | 490 | 469 |
